In US20250382302A1, “Anticancer polyheterocyclic compounds and associated methods” (University of Denver, priority 2024, published 2025):

Key:
K-562 = experiment: NCI five-dose testing, K-562
T-47D = experiment: NCI five-dose testing, T-47D; conditions: for TGI: Breast Cancer, T-47D; for GI50 / CC50: Homo sapiens, T47D; for CC50: read-out: LC50
MOLT-4 = experiment: NCI five-dose testing, MOLT-4; conditions: for GI50 / CC50: Homo sapiens; for GI50 / TGI: MOLT-4; for CC50: MOLT-4, read-out: LC50; for TGI: Leukemia
CCRF-CEM = experiment: NCI five-dose testing, CCRF-CEM; conditions: for GI50 / CC50: Homo sapiens; for CC50: read-out: LC50; for TGI: Leukemia
NCI-H522 = experiment: NCI five-dose testing, NCI-H522
HL-60(TB) = experiment: NCI five-dose testing, HL-60(TB)
RPMI-8226 = experiment: NCI five-dose testing, RPMI-8226
MDA-MB-468 = experiment: NCI five-dose testing, MDA-MB-468; conditions: for TGI: Breast Cancer; for TGI / GI50: MDA-MB-468; for GI50 / CC50: Homo sapiens; for CC50: MDA-MB-468, read-out: LC50
SR = experiment: NCI five-dose testing, SR
OVCAR-4 = experiment: NCI five-dose testing, OVCAR-4

C=CCN(C(=O)C(=O)NC1=CC(=O)c2ccccc2C1=O)c1ccsc1C(=O)OC
GI50 (K-562; Homo sapiens, K562): 1450 nM
CC50 (K-562; Homo sapiens, K562, read-out: LC50): 5280 nM
TGI (K-562; Leukemia, K-562): 2.77 × 10^−6
TGI (T-47D): 2.61 × 10^−6
GI50 (T-47D): 1320 nM
CC50 (T-47D): 5140 nM
GI50 (MOLT-4): 1110 nM
CC50 (MOLT-4): 4810 nM
TGI (MOLT-4): 2.31 × 10^−6
GI50 (CCRF-CEM): 1300 nM
CC50 (CCRF-CEM): 5070 nM
TGI (CCRF-CEM): 2.57 × 10^−6
GI50 (NCI-H522; Homo sapiens, NCI-H522): 1450 nM
CC50 (NCI-H522; Homo sapiens, NCI-H522, read-out: LC50): 5280 nM
TGI (NCI-H522; Non-Small Cell Lung Cancer, NCI-H522): 2.77 × 10^−6
GI50 (HL-60(TB); Homo sapiens, HL-60): 1080 nM
CC50 (HL-60(TB); Homo sapiens, HL-60, read-out: LC50): 4790 nM
TGI (HL-60(TB); Leukemia, HL-60(TB)): 2.27 × 10^−6
GI50 (RPMI-8226; Homo sapiens, RPMI-8226): 1470 nM
CC50 (RPMI-8226; Homo sapiens, RPMI-8226, read-out: LC50): 5280 nM
TGI (RPMI-8226; Leukemia, RPMI-8226): 2.79 × 10^−6
TGI (MDA-MB-468): 9.41 × 10^−7
GI50 (MDA-MB-468): 226 nM
CC50 (MDA-MB-468): 3090 nM

O=C1C=C(NC(=O)[C@H](Cc2ccccc2)n2cccc2)C(=O)c2ccccc21
TGI (T-47D): 2.74 × 10^−6
GI50 (T-47D): 1420 nM
CC50 (T-47D): 5260 nM
GI50 (MOLT-4): 685 nM
CC50 (MOLT-4): 4290 nM
TGI (MOLT-4): 1.84 × 10^−6
GI50 (CCRF-CEM): 1110 nM
CC50 (CCRF-CEM): 4840 nM
TGI (CCRF-CEM): 2.32 × 10^−6

C=CCCOC1=C[C@H]2C3=C(C(=O)c4ccccc4C3=O)N3C(=O)C(=O)N(Cc4ccc(C)cc4)[C@]23C=C1
GI50 (SR; Homo sapiens): 862 nM
CC50 (SR; Homo sapiens, read-out: LC50): ≥ 100000 nM
TGI (SR; Leukemia): 1.00 × 10^−4
GI50 (OVCAR-4; Homo sapiens, OVCAR-4): 875 nM
CC50 (OVCAR-4; Homo sapiens, OVCAR-4, read-out: LC50): ≥ 100000 nM
TGI (OVCAR-4; Ovarian Cancer, OVCAR-4): 7.04 × 10^−6
TGI (MDA-MB-468): 6.86 × 10^−7
GI50 (MDA-MB-468): 20.9 nM
CC50 (MDA-MB-468): ≥ 100000 nM
